# From US12528837B2, “Aryl substituted polymyxin derivatives” (priority 2018, dated 2026)
# Like-named read-outs stand apart in the source and are kept apart here. *1 amine or outer side, *2 acyl side, *3 side chain or, on linkers, in order; H or OH if unused. Where a SMILES comes first, the peptide text is derived from it. Bridges are numbered along the chain shown (N, C = ends). [ ]: non-standard residue; d: D form. The star is where a group is joined. GABA(3R-Bn) = O=C(C[C@H](CN[*:1])Cc1ccccc1)[*:2]; X6 = CC(C)Cc1cccc([C@@H](CN)CC(=O)*)c1; X3 = CC(C)c1cccc([C@@H](CN)CC(=O)*)c1; X16 = NC[C@H](CC(=O)*)Cc1cccc(Cl)c1; X8 = NC[C@@H](CC(=O)*)Cc1cccc(Cl)c1; X5 = NC[C@H](CC(=O)*)c1ccc(Cl)cc1; Dab = NCC[C@H](N)C(=O)O; Abu = CC[C@H](N)C(=O)O; Dap = NC[C@H](N)C(=O)O
# Legend:
# HK-2 cells = assay: In vitro renal cell toxicity assay (HK-2); type: cell-based
# In short: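 HK-2 cells seeded 7,500/well, adhered overnight, then exposed to compound for 24 h at 37° C, 5% CO2, with 5% water and 0.5% DMSO. Background-subtracted, vehicle-normalised dose-response fitted with bottom fixed at zero; IC50 reported relative to PMB in the same run, median where repeated.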
# K. pneumoniae ATCC 13822 = type: cell-based
# Experimental: (§1) The inoculum was prepared by making a direct suspension of isolated colonies (selected from an 18-24 hour Mueller-Hinton agar plate) adjusted to the 0.5 McFarland standard. […] The assays were performed in duplicate. […] The MIC values are quoted in μg/mL.
# A. baumannii NCTC 13424 = type: cell-based
# Experimental: as §1
# P. aeruginosa ATCC 27853 = type: cell-based; conditions: ATCC 27853
# Experimental: as §1
# E. coli ATCC 25922 = type: cell-based
# Experimental: as §1
# [1] = system: A. baumannii ATCC BAA-747; type: cell-based
# Experimental: as §1
# [2] = Kidney drug level after subcutaneous dose in mouse; type: in vivo
# In short: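 Mice were euthanised four hours after subcutaneous dosing. Both kidneys were trimmed, weighed, snap-frozen, then homogenised with zirconium oxide beads. After centrifugation (13,000 rpm, 6 °C, 10 min), supernatants were analysed by LC-MS-MS.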
# E. coli CA58 = type: cell-based
# In short: (§2)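 Inoculum was a direct suspension of isolated colonies from an 18-24 hour Mueller-Hinton agar plate, adjusted to the 0.5 McFarland standard. Assays ran in duplicate. MICs are in μg/mL; compounds tested more than once are reported as the median.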
# P. aeruginosa CCUG 59347 = type: cell-based
# In short: as §2
# K. pneumoniae CA64 = type: cell-based
# In short: as §2
# [3] = Renal toxicity in mice, separate experiment Example 17 vs PMB; type: in vivo, mouse; conditions: sc 25 mg free base/kg, four doses at 8 hr intervals
# Experimental: (§3) After the fourth dose animals were transferred into individual metabolic cages and urine collected for 24 hours for determination of urinary biomarkers. After collecting urine mice were euthanised and the kidneys harvested for histopathology.
# In a separate experiment Example 17 was compared with PMB.
# [4] = Renal toxicity in mice, 25 mg/kg sc four doses at 8 hr intervals, biomarkers and histopathology; type: in vivo, mouse; conditions: sc 25 mg free base/kg
# Experimental: as §3
# [5] = Renal toxicity in mice, 17.2 mg/kg sc three times per day, urinary biomarkers; type: in vivo, mouse; conditions: mice, sc three times per day 17.2 mg free base/kg, urine 24 h from day 4, geometric mean
# Experimental: Starting immediately after the first dose on day 4, mice were transferred to individual metabolic cages and urine was collected over the following 24 hours for determination of biomarker levels (albumin, cystatin C, KIM-1).
# PMB values show the range from 4 experiments and colistin from 2 experiments.
# Elevation of albumin, cystatin C or KIM-1 in the urine are signs of renal damage.
# [6] = IC50 relative to PMB in the same experiment, 24 h
# [7] = cation-adjusted Mueller-Hinton Broth, 18-20 h, 35° C.
# [8] = mouse, in vivo, mice, 17.2 mg/kg free base sc, 4 h, read-out: 4 hr kidney level
MIC K. pneumoniae ATCC 13822 (K. pneumoniae ATCC 13822; ATCC 13822),MIC A. baumannii NCTC 13424 (A. baumannii NCTC 13424; NCTC 13424),MIC P. aeruginosa ATCC 27853 (P. aeruginosa ATCC 27853),MIC E. coli ATCC 25922 (E. coli ATCC 25922; ATCC 25922),MIC A. baumannii ATCC BAA-747 ([1]; ATCC BAA-747),"tissue level at time at 4 h ([2]; mouse, in vivo, sc, 17.2 mg/kg)",MIC E. coli CA58 (E. coli CA58; CA58),MIC P. aeruginosa CCUG 59347 (P. aeruginosa CCUG 59347; CCUG 59347),MIC K. pneumoniae CA64 (K. pneumoniae CA64; CA64),Compound,HK-2 rel to PMB (HK-2 cells),further results
0.25 mg/L,0.25 mg/L,0.25 mg/L,0.25 mg/L,0.25 mg/L,386000 ng/g,32 mg/L,1 mg/L,64 mg/L,"CC(C)C[C@H]1NC(=O)[C@H](CCN)NC(=O)[C@@H](NC(=O)[C@H](CN)NC(=O)[C@@H](NC(=O)C[C@H](CN)c2cccc(C(C)C)c2)[C@@H](C)O)CCNC(=O)[C@H]([C@@H](C)O)NC(=O)[C@H](CCN)NC(=O)[C@H](CCN)NC(=O)[C@H]([C@@H](C)O)NC1=O [Example 19, (S)-4-amino-3-(3- isopropylphenyl) butanoyl-Thr-Dap- Cyclo[Dab-Dab-DLeu- Thr-Dab-Dab-Thr]] (X3-T[Dap][Dab][Dab][dL]T[Dab][Dab]T; lactam 3-C)",101.4,
0.5 mg/L,0.03 mg/L,0.25 mg/L,0.06 mg/L,0.06 mg/L,353000 ng/g,8 mg/L,0.5 mg/L,8 mg/L,"CC[C@@H]1NC(=O)[C@@H](CC(C)C)NC(=O)[C@H](CCN)NC(=O)[C@@H](NC(=O)[C@H](CN)NC(=O)[C@@H](NC(=O)C[C@H](CN)c2cccc(CC(C)C)c2)[C@@H](C)O)CCNC(=O)[C@H]([C@@H](C)O)NC(=O)[C@H](CCN)NC(=O)[C@H](CCN)NC1=O [Example 26, (S)-4-amino-3-(3- isobutylphenyl)butanoyl- Thr-Dap- Cyclo[Dab-Dab-DLeu- Abu-Dab-Dab-Thr]] (X6-T[Dap][Dab][Dab][dL][Abu][Dab][Dab]T; lactam 3-C)",>58,
,,,,,,,,,CC[C@@H]1NC(=O)[C@@H](Cc2ccccc2)NC(=O)[C@H](CCN)NC(=O)[C@@H](NC(=O)[C@H](CN)NC(=O)[C@@H](NC(=O)C[C@H](CN)c2cccc(C(C)C)c2)[C@@H](C)O)CCNC(=O)[C@H]([C@@H](C)O)NC(=O)[C@H](CCN)NC(=O)[C@H](CCN)NC1=O [Example 17] (X3-T[Dap][Dab][Dab][dF][Abu][Dab][Dab]T; lactam 3-C),,"HK-2 rel to PMB (HK-2 cells; [6]): 29.0; Basophilic tubules (histopathology) ([3]; animals per grade): 3 normal/2 minimal; Tubular degeneration/necrosis (histopathology) ([3]; animals per grade): All normal; Albumin, elevation compared with vehicle control ([3]; urine): 2.7×; Cystatin C, elevation compared with vehicle control ([3]; urine): 1.8×; KIM-1, elevation compared with vehicle control ([3]; urine): 4.7×; MIC A. baumannii NCTC 13424 (A. baumannii NCTC 13424; [7]): 0.06 mg/L; MIC A. baumannii ATCC BAA-747 [1, 7]: 0.06 mg/L; tissue level at time at 4 h [2, 8]: 231000 ng/g; MIC E. coli CA58 (E. coli CA58; [7]): 8 mg/L; MIC P. aeruginosa CCUG 59347 (P. aeruginosa CCUG 59347; [7]): 0.25 mg/L; MIC K. pneumoniae CA64 (K. pneumoniae CA64; [7]): 16 mg/L"
,,,,,,,,,"CC(C)C[C@@H]1NC(=O)[C@@H](Cc2ccccc2)NC(=O)[C@H](CCN)NC(=O)[C@@H](NC(=O)[C@H](CN)NC(=O)[C@@H](NC(=O)C[C@H](CN)Cc2ccccc2)[C@@H](C)O)CCNC(=O)[C@H]([C@@H](C)O)NC(=O)[C@H](CCN)NC(=O)[C@H](CCN)NC1=O [Example 9, (R)-4-amino-3- benzylbutanoyl-Thr- Dap-Cyclo[Dab-Dab- DPhe-Leu-Dab-Dab- Thr). Isomer 1] ({GABA(3R-Bn)}-T[Dap][Dab][Dab][dF]L[Dab][Dab]T; lactam 3-C)",,"HK-2 rel to PMB (HK-2 cells; [6]): 12.0; MIC K. pneumoniae ATCC 13822 (K. pneumoniae ATCC 13822; [7]): 0.25 mg/L; MIC E. coli ATCC 25922 (E. coli ATCC 25922; [7]): 0.25 mg/L; MIC A. baumannii ATCC BAA-747 [1, 7]: 0.25 mg/L; Kidney histopathology: signs of degeneration or regeneration ([4]; mice (n=6)): None of the animals; Albumin, urine ([4]; mice, urine 24 h): 749 μg/24 h; Cystatin C, urine ([4]; mice, urine 24 h): 754 ng/24 h; KIM-1, urine ([4]; mice, urine 24 h): 2 ng/24 h; Drug Level in Kidney (μg/g kidney, 4 h) ([2]; mouse, 17.2 mg/kg sc, 4 h): 159 μg/g kidney; Drug level in kidney ([2]; mouse, 17.2 mg/kg sc, 4 hours): 159 µg/g; tissue level at time at 4 h [2, 8]: 159000 ng/g; 4 hr kidney level/rel. cytotoxicity ([2]; ratio of 4 h kidney level to HK-2 IC50 relative to PMB): 13; MIC E. coli CA58 (E. coli CA58; [7]): 8 mg/L; MIC P. aeruginosa CCUG 59347 (P. aeruginosa CCUG 59347; [7]): 0.5 mg/L; MIC K. pneumoniae CA64 (K. pneumoniae CA64; [7]): 64 mg/L"
,,,,,,,,,Colistin,,"Albumin, urine [5]: 2,353-2,548 μg/24 h; Cystatin C, urine [5]: 1,266-1,678 ng/24 h; KIM-1, urine [5]: 42-89 ng/24 h"
0.5 mg/L,0.5 mg/L,0.25 mg/L,0.5 mg/L,0.5 mg/L,,8 mg/L,0.5 mg/L,16 mg/L,"CC(C)C[C@@H]1NC(=O)[C@@H](CC(C)C)NC(=O)[C@H](CCN)NC(=O)[C@@H](NC(=O)[C@H](CN)NC(=O)[C@@H](NC(=O)C[C@@H](CN)Cc2cccc(Cl)c2)[C@@H](C)O)CCNC(=O)[C@H]([C@@H](C)O)NC(=O)[C@H](CCN)NC(=O)[C@H](CCN)NC1=O [Example 13, (S)-4-amino-3-(3- chlorobenzyl)butanoyl- Thr-Dap-Cyclo[Dab- Dab-DLeu-Leu-Dab- Dab-Thr], Isomer 2] (X16-T[Dap][Dab][Dab][dL]L[Dab][Dab]T; lactam 3-C)",,
0.25 mg/L,0.25 mg/L,0.25 mg/L,0.25 mg/L,0.25 mg/L,538000 ng/g,8 mg/L,0.5 mg/L,2 mg/L,"CC(C)C[C@@H]1NC(=O)[C@@H](Cc2ccccc2)NC(=O)[C@H](CCN)NC(=O)[C@@H](NC(=O)[C@H](CN)NC(=O)[C@@H](NC(=O)C[C@@H](CN)c2ccc(Cl)cc2)[C@@H](C)O)CCNC(=O)[C@H]([C@@H](C)O)NC(=O)[C@H](CCN)NC(=O)[C@H](CCN)NC1=O [Example 2, (R)-4-amino-3-(4- chlorophenyl)butanoyl- Thr-Dap-Cyclo[Dab- Dab-DPhe-Leu-Dab- Dab-Thr]] (X5-T[Dap][Dab][Dab][dF]L[Dab][Dab]T; lactam 3-C)",7.2,"4 hr kidney level/rel. cytotoxicity ([2]; mouse, in vivo): 75"
0.5 mg/L,0.5 mg/L,0.5 mg/L,1 mg/L,0.5 mg/L,,8 mg/L,1 mg/L,32 mg/L,"CC(C)C[C@@H]1NC(=O)[C@@H](CC(C)C)NC(=O)[C@H](CCN)NC(=O)[C@@H](NC(=O)[C@H](CN)NC(=O)[C@@H](NC(=O)C[C@H](CN)Cc2cccc(Cl)c2)[C@@H](C)O)CCNC(=O)[C@H]([C@@H](C)O)NC(=O)[C@H](CCN)NC(=O)[C@H](CCN)NC1=O [Example 14, (R)-4-amino-3-(3- chlorobenzy!)butanoyl- Thr-Dap-Cyclo[Dab- Dab-DLeu-Leu-Dab- Dab-Thr] Isomer 1] (X8-T[Dap][Dab][Dab][dL]L[Dab][Dab]T; lactam 3-C)",,
0.5 mg/L,0.25 mg/L,0.25 mg/L,0.5 mg/L,0.5 mg/L,163000 ng/g,4 mg/L,0.5 mg/L,16 mg/L,"CC(C)C[C@@H]1NC(=O)[C@@H](Cc2ccccc2)NC(=O)[C@H](CCN)NC(=O)[C@@H](NC(=O)[C@H](CN)NC(=O)[C@@H](NC(=O)C[C@H](CN)Cc2cccc(Cl)c2)[C@@H](C)O)CCNC(=O)[C@H]([C@@H](C)O)NC(=O)[C@H](CCN)NC(=O)[C@H](CCN)NC1=O [Example 11, (R)-4-amino-3-(3- chlorobenzyl)butanoyl- Thr-Dap-Cyclo[Dab- Dab-DPhe-Leu-Dab- Dab-Thr]. Isomer 1] (X8-T[Dap][Dab][Dab][dF]L[Dab][Dab]T; lactam 3-C)",5.2,
